Tests used:
Map3 = target: T1, Map3 (Schizosaccharomyces pombe, UniProt P31397); test: Shmooing assay of synthetic M-factor peptides on P cells lacking rgs1+ (TS405); assay type: cell-based, S. pombe; details: EMM2−N
T1 construct: an M-factor-sensitive strain lacking the rgs1^+ gene [53]; endogenous in cells; host or cells: S. pombe heterothallic haploid P cells lacking rgs1+ (TS405)
T1 sequence (P31397 1-365): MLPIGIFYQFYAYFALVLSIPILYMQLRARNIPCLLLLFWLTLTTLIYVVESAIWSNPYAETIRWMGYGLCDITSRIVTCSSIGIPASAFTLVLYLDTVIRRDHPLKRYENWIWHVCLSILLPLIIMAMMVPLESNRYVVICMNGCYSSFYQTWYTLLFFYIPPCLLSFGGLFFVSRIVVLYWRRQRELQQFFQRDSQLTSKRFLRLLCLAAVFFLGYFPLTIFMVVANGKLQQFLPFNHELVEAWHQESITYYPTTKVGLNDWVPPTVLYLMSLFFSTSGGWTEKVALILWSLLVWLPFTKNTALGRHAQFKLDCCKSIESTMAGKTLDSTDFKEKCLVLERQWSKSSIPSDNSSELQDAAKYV
Description: Under these conditions, approximately 40% of cells treated with Sp-M-factor peptide underwent shmoo formation, whereas no cells treated with So-M-factor peptide underwent shmooing (S5B Fig). When the concentration of So-M-factor was raised to 1,000 nM, the cells underwent shmoo elongation a little (S5B Fig).
P-factor and M-factor peptides were chemically synthesized (Eurofins) for the shmooing assay. The purity of the preparations was over 95% (HPLC). P-factor was dissolved in dimethyl sulfoxide (DMSO) at a concentration of 500 μM, and M-factor was dissolved in methanol (MeOH) at a concentration of 1 mM. The stock solutions were diluted with culture medium to the appropriate dilution ratio. For the assay, heterothallic haploid cells were grown in YE medium overnight, washed with sterilized water three times, and then resuspended in EMM2−N medium at a cell density of 4 × 10^7 cells/ml. The cells were treated with the synthetic pheromone and incubated for exactly 24 hours with gentle shaking.
To assess whether Mam2 could recognize different P-factors, a P-factor sensitive strain lacking the sxa2^+ gene (TS402) was used. The cells were incubated with synthetic P-factors at different concentrations (0, 10, 100, and 1,000 nM) for 24 hours and observed by a DIC microscope. Images were recorded, and the L and W of a cell were measured to determine the L/W ratio. […] In all cases, at least 100 cells each were measured. […] The cells were treated with synthetic M-factors at different concentrations (0, 100, and 1,000 nM) for 24 hours, and analyzed, as described above.
Supplementary file pbio.3000101.s005.tif: S5 Fig Effects of mating pheromones of S. octosporus on S. pombe cells. […] The ability of each M-factor peptide to induce shmooing was assessed by the L/W ratio of a cell, as described in S3 Fig. (C) Comparison of the amino sequences of Sp-P-factors and So-P-factors. […] The shmooing assay was evaluated as described in S3 Fig. EMM2−N, Edinburgh Minimal Medium 2 lacking nitrogen; L, length; M, Minus; P, Plus; rgs, regulator of G-protein signaling; So, S. octosporus; Sp, S. pombe; W, width. […]

S. pombe cells = test: Quantitative assay of zygote formation (mating efficiency), S. pombe strains; assay type: cell-based; details: peptide produced by engineered strain; mfm1 gene integrated in M-factorless strain FY23412; MEA, 2 days, 30 °C; mean ± SD of triplicate
Description: The resulting strains each produced one of the six P-factors. The mating efficiency of these strains was assessed by the frequency of zygotes. […] To determine whether the order of nucleotide sequences encoding mature P-factor affects zygote frequency, we also introduced a map2 gene carrying a permuted sequence of repeats (P2-P3-P2-P1) into the FY23418 strain. Similar to the strain with the native sequence, this strain also mated at high frequency (74.2% ± 1.7%) (Fig 2D); therefore, the effect of peptide-coding position appears small.
Next, we assessed whether the pheromone peptides of S. octosporus are effective on S. pombe cells. […] Next, we replaced the Sp-M-factor–encoding sequence in the mfm1^+ gene with the So-M-factor–encoding sequence (mfm1^So). […] In short, S. pombe P cells were unable to mate with M cells producing So-M-factor. […] We also replaced the So-P-factor–encoding sequence (7 repeats) in the So-map2^+ gene with the Sp-P-factor–encoding sequence (4 repeats) (So-map2^Sp) in S. octosporus cells. […]
Cells grown on YEA plates overnight were resuspended in sterilized water to a cell density of 1 × 10^8 cells/ml. […] The percentage of zygotes was calculated, as described previously. In all cases, triplicate samples (at least 300 cells each) were counted, and the mean and standard deviation (SD) were calculated.

[1] = TS405 P cells (rgs1Δ), 100 nM synthetic M-factor, one day

Row | Substance | Shmooing at 100 nM (in words) (Map3; [1]) | Shmoo elongation at 1,000 nM (in words) (Map3; TS405 P cells (rgs1Δ), 1,000 nM synthetic M-factor, 24 hours) | Mating efficiency (zygotes) of S. pombe strain producing only this M-factor (S. pombe cells) | Proportion of cells that underwent shmoo formation, 100 nM (Map3; [1])
1 | YQPKPPAMC^Far-OCH3 [So-M-factor, putative M-factor of S. octosporus, farnesylated methylated nonapeptide] | no cells | a little | completely sterile | 
2 | YTPKVPYMC^Far-OCH3 [Sp-M-factor, S. pombe mature M-factor, farnesylated and methylated peptide of nine amino acids, reference compound] |  |  | 72.1% ± 3.7% | approximately 40%

Reference: publication PMC6342294, “Asymmetric diversification of mating pheromones in fission yeast” (PLoS Biology, 2019)
